One data set has as its system MYC gene. As to the kind of experiment: RT-qPCR in OPM2 cells. The class given is cell-based, human. Particulars: 2 h. On the procedure:
OPM2 cells (1×10^6) were treated with Cpd 010 or DMSO vehicle at indicated concentrations for 2 h. RNA was extracted from cell pellets using the PureLink™ RNA Mini Kit (ThermoFisher Scientific, #121839025) as per the manufacturer's instructions. cDNA was syn thesised with the SuperScript™ III cDNA synthesis kit (ThermoFisher Scientific, #18080093) according to the manufacturer's instructions. Quantitative PCR analysis of samples was per formed on the QuantStudio7 Flex RT-PCR system (ThermoFisher) with SYBR™ Master Mix (ThermoFisher Scientific, #4472903). L32 were used as the human control gene. Primer se quences were: Homo sapiens MYC F: […] R: […], Homo sapiens L32 F: […] R: TTGTGAGCGATCTCGGCAC. Each RT-qPCR am plification was performed in triplicate (technical triplicates) and repeated 2 times (biological replicates).

Another data set deals with T1, BRD2 (Homo sapiens, UniProt P25440).
T1 construct: endogenous in cells; host or cells: Ramos
As to the kind of experiment: Cellular thermal shift assay (CETSA) in Ramos cells. In kind it is cell-based. The following applies: 20 μM, 40 min, vs DMSO. As for the experimental part:
(§1) Ramos cells (human Burkitt lymphoma cell line) at 20×10^6 were washed in PBS followed by resuspension in 5 mL serum-free RPMI. They were treated either with Cpd 010 or DMSO at 20 μM for 40 min at 37° C. with 5% CO2. Cells were then collected, resuspended in PBS and separated into PCR tubes. They were heated at designated temperature for strictly 3 min followed by another 3 min at 25° C. on ABI Applied Biosystems 9902 Veriti PCR Thermal Cycler. Immediately, they were placed in liquid nitrogen for snap freezing. The samples were freeze-thawed until the final samples were place on ice. They were centrifuged and supernatants were collected. Loading dye was mixed and these were processed as per our Western Blot protocol (see above). The following primary antibodies were used; rabbit BRD4 (Cell Signaling, #13440), rabbit BRD2 (Cell Signaling, #5848), and mouse anti-β-actin (Sigma-Aldrich, clone AC-74).

Data set [1] is described as follows: In vivo assessment of maximum tolerated dose (MTD). From the text:
The Peter MacCallum Cancer Centre Animal Ethics Committee approved all in vivo procedures in this study. B6.SJL-PtprcPepc/BoyJ (B6.CD45.1) mice were purchased from the Walter and Eliza Hall Institute (Melbourne, VIC). For enhanced solubility, Cpd 010 was reconstituted in double dose with 60% Hydroxypropyl-B-cyclodextrin (HPBCD; Cyclodextrin Technologies Development Inc.) and subsequently diluted with ultrafiltered water in 1:1 ratio prior to injection. Vehicle control was 60% HPBCD subsequently diluted 1:1 ratio with ultrafiltered water prior to injection for the final concentration of 30% HPBCD. MTD was carried out in 6-8 week old, non-tumour bearing female mice starting from 25 mg/kg of Cpd 010, 5 day intraperitoneal injection. Six mice received Cpd 010 and two mice received vehicle (30% HPBCD). Full Blood Examination (FBE), serum, spleen weight and morphological examination for toxicity were assessed on day 8 and day 15. In the absence of toxicity further dose escalation was carried out.

For the next data set, the system named is MYC target genes. As to the kind of experiment: RNA-Seq and Gene Set Enrichment Analysis (GSEA) in OPM2 cells. The class given is cell-based, human. Particulars: 250 nM, 2 h. On the procedure: OPM2 cells (4×10^6) were treated with 250 nM of Cpd 010 or DMSO vehicle for 2 h. Cells pellets were collected, and RNA was extracted using the Nucleospin RNA extraction kit (Macherey-Nagel) as per the manufacturer's instructions. The QuantSeq 30 mRNA-seq Library Prep Kit for Illumina (Lexogen) was used to generate libraries as per the manufacturer's instructions, which were sequenced on the NextSeq (Illumina; 75 bp SE). GSEA2-2.2.2 was used for identification of enriched signatures obtained from the MSigDB Hallmarks datasets (Liber-zon et al., 2015). Samples were prepared in technical triplicates.

For data set [2], the system named is pAKT (PI3K substrate) and MYC (BET target protein). The data set can be described thus: Western Blot analysis in OPM2 cells. The class given is cell-based, human. Particulars: 4 hours. As for the experimental part:
OPM2 cells (1.2×10^6) were treated with Cpd 010 or DMSO control at indicated concentrations for 4 hours. Lysates were prepared in ice-cold RIPA lysis buffer (Thermofisher, Life Technologies) and supplemented with Halt protease phosphatase inhibitor cocktail (Thermofisher, Pierce Biotechnology). Protein concentrations of lysate samples were determined by bicinchoninic acid assay (BCA assay) using the Thermo Scientific Pierce BCA Protein Assay Kit (ThermoFisher, Life Technologies) as per manufacturer's instructions. Absorbance for protein concentration estimation was measured using a BMG OPTIMA (Fluostar optima, BMG Labtech). Lysates (25-50 μg) were separated on pre-cast gels (Bis-Tris 4-12% gradient gels) (Bolt, Life Technologies) and transferred onto polyvinylidene difluoride (PVDF) membranes (Immobilon-FL, Merck). The membranes were sequentially incubated with primary antibodies o.n. at 4° C.; mouse anti-β-actin (Sigma-Aldrich, clone AC-74), rabbit anti-cMyc (Cell Signaling, #9402S), rabbit anti-pAKT Ser473 (Cell Signaling, #9271), rabbit anti-pS6 Ser240/244 (Cell Signaling, #2215). Subsequently they were incubated with horse radish pe-roxidase (HRP)-conjugated secondary antibodies for 1-2 h at r.t before the detection of proteins by enzymatic (chemiluminescent) reaction using a ChemiDoc^Tm XRS+ System (Bio-Rad La-boratories Inc.). […]

The target in the next data set is BRD4 (Homo sapiens, UniProt O60885). The data set can be described thus: Cellular thermal shift assay (CETSA) in Ramos cells. The following applies: 20 μM, 40 min, vs DMSO. Further details: endogenous in cells. The class given is cell-based. On the procedure: as §1
The next data set concerns Eμ-Myc lymphoma cells. As to the kind of experiment: In vivo tumour burden from a single dose, Eμ-Myc lymphoma. Also noted: species or system mouse. On the procedure:
B6.SJL-PtprcPepc/BoyJ (B6.CD45.1) mice were inoculated via tail vein injection with 5×10^5 Eμ-Myc lymphoma cells and left untreated for 12-14 days. A single injection of Cpd 010 at 35-45 mg/kg, or vehicle control (30% HPBCD) was administered. Half of the mice (n=6) were harvested 6 h post injection while the other half (n=6) were harvested 16 h later. Assessment of tumour burden was carried out on single cell suspension of harvested lymph nodes, spleen and blood by flow cytometry using antibodies as above. PD-L1 MFI was assessed by flow cytometry in harvested LNs using anti-mouse PD-L1-PE (ThermoFisher Scientific, clone MIH5) or isotype control antibodies (Mouse IgG2b PE, #559529). Harvested LNs were also washed in PBS and lysates were collected using Laemmli Buffer (AlfaAeser #J61337). They were processed as per our Western Blot protocol (see above) before they were probed for primary pAKT antibodies. Spleen size and weights were also measured between the treatment groups.

T1 sequence (P25440 whole entry): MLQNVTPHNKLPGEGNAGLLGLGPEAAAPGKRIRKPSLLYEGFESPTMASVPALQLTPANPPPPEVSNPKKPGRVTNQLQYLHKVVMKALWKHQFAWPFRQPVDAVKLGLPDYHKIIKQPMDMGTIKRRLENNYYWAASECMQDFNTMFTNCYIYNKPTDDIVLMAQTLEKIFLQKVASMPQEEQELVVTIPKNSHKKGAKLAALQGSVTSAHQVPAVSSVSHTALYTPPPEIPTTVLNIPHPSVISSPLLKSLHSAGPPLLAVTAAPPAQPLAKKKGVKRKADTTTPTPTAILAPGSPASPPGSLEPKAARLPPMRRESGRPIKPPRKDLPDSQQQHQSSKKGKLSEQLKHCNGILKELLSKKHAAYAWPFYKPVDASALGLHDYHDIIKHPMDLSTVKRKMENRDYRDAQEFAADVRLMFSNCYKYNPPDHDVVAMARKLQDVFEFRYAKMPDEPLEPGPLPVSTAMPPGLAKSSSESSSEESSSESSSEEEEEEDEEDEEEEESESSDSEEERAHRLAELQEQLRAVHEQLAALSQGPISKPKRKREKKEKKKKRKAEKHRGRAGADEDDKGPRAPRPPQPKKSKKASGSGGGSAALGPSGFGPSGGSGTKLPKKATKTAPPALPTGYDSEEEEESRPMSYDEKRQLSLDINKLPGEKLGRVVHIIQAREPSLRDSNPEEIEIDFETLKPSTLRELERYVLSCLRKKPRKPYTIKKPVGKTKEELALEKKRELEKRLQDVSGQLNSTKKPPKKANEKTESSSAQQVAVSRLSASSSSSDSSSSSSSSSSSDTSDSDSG

For `CC(=O)N1c2ccc(-c3ccc(CNC(=O)c4cn5cc(-c6cnc(N)nc6)nc(N6CCOCC6)c5n4)cc3)cc2CC[C@@H]1C` [Cpd 010, (S)-N-(4-(1-acetyl-2-methyl-1,2,3,4-tetrahydroquinolin-6-yl)benzyl)-6-(2-aminopyrimidin-5-yl)-8-morpholinoimidazo[1,2-a]pyrazine-2-carboxamide], in the data set with MYC gene, the “MYC mRNA level” value is listed as “significant decrease in MYC mRNA level”. In addition, the “clearance of BRD2 protein with increasing temperature” value on BRD2 is given as “delayed clearance”. Moreover, the “spleen and body weight” value in data set [1] (50 mg/kg) was “no changes in spleen and body weight”. Also, the “FBE at day 8” value in data set [1] (50 mg/kg, day 8) was “moderate thrombocytopenia”. Moreover, the “FBE on day 15” value in data set [1] (50 mg/kg, day 15) is recorded as “recovered to the normal level”. In data set [1] (B6.SJL-Ptprc<a>Pepc<b>/BoyJ (B6.CD45.1), mouse, in vivo, ip, non-tumour bearing female mice, 5 day intraperitoneal injection), this compound came in with an MTD at 5 day of 50 mg/kg. In the data set on MYC target genes, the gene set enrichment entry was “enrichment against MYC target genes with a trend toward MTORC1 signaling genes”. In data set [2], the “levels of pAKT and MYC” value was “suppressed levels of both pAKT (PI3K substrate) and MYC (BET target protein) at all test concentrations”. Also, at BRD4, the “clearance of BRD4 protein with increasing temperature” value is listed as “delayed clearance”. Besides, the “size of the spleen” value in the data set on Eμ-Myc lymphoma cells (single dose 35-45 mg/kg) was “significantly reduced”. Further, the “number of tumour cells in peripheral blood and harvested spleen” value with Eμ-Myc lymphoma cells (single injection 35-45 mg/kg, 16 h) was “marked reduction in number of tumour cells in peripheral blood and harvested spleen”.

For the origin of these results see patent US20230312577A1, “DUAL KINASE-BROMODOMAIN INHIBITORS” (MONASH UNIVERSITY, priority 2020, published 2023).
